Experimental data from paper PMC6979384, “Characterization of the plant homeodomain (PHD) reader family for their histone tail interactions” (Epigenetics & Chromatin, 2020).

Experiments:
Experiment in all cases: Histone peptide microarray
Type in all cases: binding, human
[1] = system: PHF13; conditions: PHF13; sheet "Array Heatmap"; each array performed twice, total n = 4
Text: (§1) To more comprehensively define the histone interactions of the 31 PHD readers identified from the domain microarray analyses, we probed each on an alternate microarray platform containing a library of 293 synthetic histone peptides with single or combinatorial PTMs (Additional file 2: Figure S4 and Additional file 3: Table S2).
(§2) The 31 GST-tagged PHD readers identified in the PHD finger domain array were expressed and purified as previously. Histone peptide arrays and peptide pulldown assays were conducted as recently described (specifically, the optimized protocol from Petell et al. for the former).
(§3) Supplementary file 13072_2020_328_MOESM3_ESM.xlsx: Additional file 3: Table S2. […] Excel Tab Peptide List is a compiled list of the entire 293 histone peptide library with amino acid sequence ranges. […] Each number corresponds to the peptide number designated in Peptide List. Excel Tab Average Signals is a compiled set of binding data: chromatin reader at 0.5 μM vs. entire 293 peptide library. Data is presented as the average and standard deviation of 4 replicates. The average signals are colored to indicate signal intensity with green being strong and white being weak/low. […] Key: red= stronger relative binding; blue = weaker relative binding. Excel Tab Array info summary is a table summarizing the domains, sequence coverage, array signal range, and noise for each of the GST-tagged readers assayed on the peptide microarrays.

[2] = system: KDM4C (TTP); conditions: KDM4C (TTP); sheet "Array Heatmap"; each array performed twice, total n = 4
Text: as §1, §2, §3

[3] = system: ING2; conditions: ING2; sheet "Array Heatmap"; each array performed twice, total n = 4
Text: as §1, §2, §3

[4] = system: PHRF1 (RP); conditions: PHRF1 (RP); sheet "Array Heatmap"; each array performed twice, total n = 4
Text: as §1, §2, §3

[5] = system: BPTF (PB); conditions: BPTF (PB); sheet "Array Heatmap"; each array performed twice, total n = 4
Text: as §1, §2, §3

[6] = system: KDM5B (1); conditions: KDM5B (1); sheet "Array Heatmap"; each array performed twice, total n = 4
Text: as §1, §2, §3

[7] = system: ING1; conditions: ING1; sheet "Array Heatmap"; each array performed twice, total n = 4
Text: as §1, §2, §3

[8] = system: DIDO1; conditions: DIDO1; sheet "Array Heatmap"; each array performed twice, total n = 4
Text: as §1, §2, §3

[9] = system: KDM5A (1); conditions: KDM5A (1); sheet "Array Heatmap"; each array performed twice, total n = 4
Text: as §1, §2, §3

[10] = system: MORC3 (CW); conditions: MORC3 (CW); sheet "Array Heatmap"; each array performed twice, total n = 4
Text: as §1, §2, §3

[11] = system: BAZ2B; conditions: BAZ2B; sheet "Array Heatmap"; each array performed twice, total n = 4
Text: as §1, §2, §3

[12] = system: CHD5 (PPCC); conditions: CHD5 (PPCC); sheet "Array Heatmap"; each array performed twice, total n = 4
Text: as §1, §2, §3

[13] = system: MLL5; conditions: MLL5; sheet "Array Heatmap"; each array performed twice, total n = 4
Text: as §1, §2, §3

[14] = system: CHD4 (PPCC); conditions: CHD4 (PPCC); sheet "Array Heatmap"; each array performed twice, total n = 4
Text: as §1, §2, §3

[15] = system: KDM7A; conditions: KDM7A; sheet "Array Heatmap"; each array performed twice, total n = 4
Text: as §1, §2, §3

[16] = system: PHF2; conditions: PHF2; sheet "Array Heatmap"; each array performed twice, total n = 4
Text: as §1, §2, §3

[17] = system: SP140L; conditions: SP140L; sheet "Array Heatmap"; each array performed twice, total n = 4
Text: as §1, §2, §3

[18] = system: ING4; conditions: ING4; sheet "Array Heatmap"; each array performed twice, total n = 4
Text: as §1, §2, §3

[19] = system: PHF23; conditions: PHF23; sheet "Array Heatmap"; each array performed twice, total n = 4
Text: as §1, §2, §3

[20] = system: ING5; conditions: ING5; sheet "Array Heatmap"; each array performed twice, total n = 4
Text: as §1, §2, §3

[21] = system: KDM5B (3); conditions: KDM5B (3); sheet "Array Heatmap"; each array performed twice, total n = 4
Text: as §1, §2, §3

[22] = system: ING3; conditions: ING3; sheet "Array Heatmap"; each array performed twice, total n = 4
Text: as §1, §2, §3

[23] = system: AIRE (PP); conditions: AIRE (PP); sheet "Array Heatmap"; each array performed twice, total n = 4
Text: as §1, §2, §3

[24] = system: TRIM66 (PB); conditions: TRIM66 (PB); sheet "Array Heatmap"; each array performed twice, total n = 4
Text: as §1, §2, §3

[25] = system: TAF3; conditions: TAF3; sheet "Array Heatmap"; each array performed twice, total n = 4
Text: as §1, §2, §3

[26] = system: PHF8; conditions: PHF8; sheet "Array Heatmap"; each array performed twice, total n = 4
Text: as §1, §2, §3

[27] = system: DPF2 (PPC2W2); conditions: DPF2 (PPC2W2); sheet "Array Heatmap"; each array performed twice, total n = 4
Text: as §1, §2, §3

[28] = system: PHF21A; conditions: PHF21A; sheet "Array Heatmap"; each array performed twice, total n = 4
Text: as §1, §2, §3

[29] = system: CHD5 (PCC); conditions: CHD5 (PCC); sheet "Array Heatmap"; each array performed twice, total n = 4
Text: as §1, §2, §3

[30] = system: RAG2; conditions: RAG2; sheet "Array Heatmap"; each array performed twice, total n = 4
Text: as §1, §2, §3

[31] = system: KDM5A (3); conditions: KDM5A (3); sheet "Array Heatmap"; each array performed twice, total n = 4
Text: as §1, §2, §3

| Substance | Array Heatmap value (peptide array signal) [1] | Array Heatmap value (peptide array signal) [2] | Array Heatmap value (peptide array signal) [3] | Array Heatmap value (peptide array signal) [4] | Array Heatmap value (peptide array signal) [5] | Array Heatmap value (peptide array signal) [6] | Array Heatmap value (peptide array signal) [7] | Array Heatmap value (peptide array signal) [8] | Array Heatmap value (peptide array signal) [9] | Array Heatmap value (peptide array signal) [10] | Array Heatmap value (peptide array signal) [11] | Array Heatmap value (peptide array signal) [12] | Array Heatmap value (peptide array signal) [13] | Array Heatmap value (peptide array signal) [14] | Array Heatmap value (peptide array signal) [15] | Array Heatmap value (peptide array signal) [16] | Array Heatmap value (peptide array signal) [17] | Array Heatmap value (peptide array signal) [18] | Array Heatmap value (peptide array signal) [19] | Array Heatmap value (peptide array signal) [20] | further results |
| --- | --- | --- | --- | --- | --- | --- | --- | --- | --- | --- | --- | --- | --- | --- | --- | --- | --- | --- | --- | --- | --- |
| H2BK5me1: H2B 1-24 [Peptide H2BK5me1] | 0.5791 | 0.4441 | 0.6238 | 0.4244 | 0.3333 | 0.6308 | 0.5552 | 0.7058 | 0.4431 | 0.347 | 0.4388 | 0.5218 | 0.5838 | 0.5519 | 0.316 | 0.5195 | 0.3691 | 0.4312 | 0.5121 | 0.3396 | Array Heatmap value (peptide array signal) [21]: 0.4454; Array Heatmap value (peptide array signal) [22]: 0.4514; Array Heatmap value (peptide array signal) [23]: 0.3816; Array Heatmap value (peptide array signal) [24]: 0.6209; Array Heatmap value (peptide array signal) [25]: 0.2612; Array Heatmap value (peptide array signal) [26]: 0.341; Array Heatmap value (peptide array signal) [27]: 0.6733; Array Heatmap value (peptide array signal) [28]: 0.4511; Array Heatmap value (peptide array signal) [29]: 0.7328; Array Heatmap value (peptide array signal) [30]: 0.242; Array Heatmap value (peptide array signal) [31]: 0.4387 |
| H2BK5me3: H2B 1-24 [Peptide H2BK5me3] | 0.5645 | 0.446 | 0.6172 | 0.4726 | 0.341 | 0.6322 | 0.5322 | 0.7661 | 0.4446 | 0.3836 | 0.449 | 0.5383 | 0.5755 | 0.5374 | 0.3153 | 0.5404 | 0.332 | 0.4354 | 0.5495 | 0.3443 | Array Heatmap value (peptide array signal) [21]: 0.4604; Array Heatmap value (peptide array signal) [22]: 0.4743; Array Heatmap value (peptide array signal) [23]: 0.3902; Array Heatmap value (peptide array signal) [24]: 0.6056; Array Heatmap value (peptide array signal) [25]: 0.2673; Array Heatmap value (peptide array signal) [26]: 0.3604; Array Heatmap value (peptide array signal) [27]: 0.6454; Array Heatmap value (peptide array signal) [28]: 0.4302; Array Heatmap value (peptide array signal) [29]: 0.766; Array Heatmap value (peptide array signal) [30]: 0.2767; Array Heatmap value (peptide array signal) [31]: 0.4811 |
| H2BK12ac: H2B 1-24 [Peptide H2BK12ac] | 0.5184 | 0.3788 | 0.5927 | 0.4148 | 0.2975 | 0.5631 | 0.4874 | 0.6693 | 0.3805 | 0.3313 | 0.3626 | 0.4364 | 0.5021 | 0.55 | 0.2936 | 0.5083 | 0.3291 | 0.3767 | 0.4647 | 0.2703 | Array Heatmap value (peptide array signal) [21]: 0.4029; Array Heatmap value (peptide array signal) [22]: 0.413; Array Heatmap value (peptide array signal) [23]: 0.3561; Array Heatmap value (peptide array signal) [24]: 0.5657; Array Heatmap value (peptide array signal) [25]: 0.2326; Array Heatmap value (peptide array signal) [26]: 0.311; Array Heatmap value (peptide array signal) [27]: 0.6335; Array Heatmap value (peptide array signal) [28]: 0.4277; Array Heatmap value (peptide array signal) [29]: 0.7553; Array Heatmap value (peptide array signal) [30]: 0.2122; Array Heatmap value (peptide array signal) [31]: 0.4192 |
| H2BK15ac: H2B 1-24 [Peptide H2BK15ac] | 0.6426 | 0.4832 | 0.6208 | 0.4303 | 0.3575 | 0.6467 | 0.5436 | 0.6647 | 0.465 | 0.3521 | 0.4604 | 0.5537 | 0.5596 | 0.606 | 0.3558 | 0.5204 | 0.361 | 0.465 | 0.5678 | 0.3652 | Array Heatmap value (peptide array signal) [21]: 0.457; Array Heatmap value (peptide array signal) [22]: 0.4826; Array Heatmap value (peptide array signal) [23]: 0.4221; Array Heatmap value (peptide array signal) [24]: 0.5831; Array Heatmap value (peptide array signal) [25]: 0.2676; Array Heatmap value (peptide array signal) [26]: 0.3468; Array Heatmap value (peptide array signal) [27]: 0.6359; Array Heatmap value (peptide array signal) [28]: 0.4803; Array Heatmap value (peptide array signal) [29]: 0.7574; Array Heatmap value (peptide array signal) [30]: 0.2507; Array Heatmap value (peptide array signal) [31]: 0.4161 |
